Results as given in publication PMC8453901, “GLPG1205, a GPR84 Modulator: Safety, Pharmacokinetics, and Pharmacodynamics in Healthy Subjects” (Clinical Pharmacology in Drug Development, 2021).
Entries after “also recorded” stand apart in the source; their conditions may differ. Like-named read-outs stand apart in the source and are kept apart here.

Key:
[1] = parameters: method as in PMID 32902984; details: rats, up to 100 mg/kg/d; cited from earlier work
[2] = Study 1 MAD part: plasma and urine pharmacokinetics, once daily for 14 days; format: in vivo, human; details: for AUC / Cmax / Tmax / half-life: male, human, plasma, oral; for AUC: dosing interval 24 hours; for Tmax: median (minimum-maximum)
Description: GLPG1205 or matching placebo were administered as an oral nanosuspension in the morning in a fed condition as an outpatient. For both the single ascending doses (SADs) and multiple ascending doses (MADs) parts of the study, subjects attended a screening visit (21 to 2 days before first study drug administration) and a follow‐up visit (7 to 10 days after the last dose).
In the MAD part of study 1, 24 healthy male subjects in 3 cohorts (C, D, and E; n = 8 each) each received GLPG1205 or matching placebo once daily for 14 days. Cohorts C, D, and E received GLPG1205 50 mg once daily or matching placebo, GLPG1205 100 mg once daily or matching placebo, and GLPG1205 200 mg once daily or matching placebo, respectively. Within a cohort, subjects were randomized to receive GLPG1205 or matching placebo in a 3:1 ratio. An interval of at least 6 days was enforced between cohorts. Subjects were kept in‐house from the evening of day –1 until ≈26 hours after first dosing (morning of day 2), and from the evening of day 13 to the morning of day 15. Administration of the study drug was performed daily at the clinical pharmacology unit.
In the SAD part of study 1, blood samples (2 mL) for PK assessments were obtained before dosing and at multiple time points on the day of study drug administration (before dosing and 0.5, 1, 2, 4, 6, 8, and 12 hours after dosing) and at 24, 48, and 72 hours after dosing. The predose sample for the next dose level was also used in PK analysis (168 hours after dosing). […] In the MAD part of study 1, blood samples (2 mL) were obtained on days 1, 2, 4, 5, 6, 8, 10, 12, 14, 15, 16, 17, and 18 and at follow‐up (approximately 7 to 10 days after the last dose). These PK blood samples were taken after dosing (1, 2, 4, 6, 8, 12, and 24 hours) on day 1; before dosing on days 4, 6, 8, and 10; and after dosing (1, 2, 4, 6, 8, 12, 24, 72, and 96 hours) on day 14. The following additional PK blood samples were also taken: cohort C, before dosing on day 5; and cohorts D and E, before dosing on day 12. Urine samples were obtained from fractions collected over 6‐ or 12‐hour periods after dosing on days –1, 1, 2, 13, 14, and 15; samples obtained on days –1 and 13 were for cytochrome P450 (CYP) induction analysis only. In study 2, blood samples (2 mL) were obtained on days 1, 2, 5, 7, 10, 14, 15, 17, and 20 and at follow‐up (approximately 21 days after end of study medication administration). Blood samples were taken before dosing and at 1, 2, 4, 6, 8, 12, and 24 hours after drug administration on days 1 and 14 and before dosing on other sampling days.
Blood samples were immediately chilled (ice bath), and the plasma was separated by centrifugation (4°C for 10 minutes at ≈1500 g) within 30 minutes of blood collection.
GLPG1205 plasma concentrations were determined using a validated liquid chromatography with tandem mass spectrometry method. After a protein precipitation with methanol, a chromatographic separation was performed on a Kinetex C18 column (50×3.0 mm, 2.6 μm; Phenomenex, Torrance, California) set at 40°C by using a Nexera high‐performance liquid chromatography (HPLC) system (Shimadzu, Kyoto, Japan) or an Infinity HPLC system (Agilent Technologies, Diegem, Belgium) in isocratic elution mode. A QTRAP6500, QTRAP4000, or API4000 mass spectrometer (AB Sciex, Nieuwerkerk aan den Ijssel, The Netherlands) equipped with a TurboIonSpray probe operated in the multiple reaction monitoring in positive mode was used for quantification. The calibration curves in plasma were linear over the range of 1 to 1000 ng/mL with 1/x^2 as weighting factor. The limit of quantification of the assay in the plasma samples was set at 1 ng/mL.
GLPG1205 concentrations in urine fractions were determined by using a qualified liquid chromatography with tandem mass spectrometry method derived from the plasma method. […]

[3] = parameters: method as in PMID 32902984; details: mouse, rat, and dog; cited from earlier work
[4] = parameters: method as in data on file at Galapagos, 17; details: separate study; ref data on file at Galapagos, 17; cited from earlier work
[5] = 50 mg, 50 mg once daily, day 1, mean (CV%)
[6] = 50 mg, 50 mg once daily, day 14, mean (CV%)
[7] = 100 mg, 100 mg once daily, day 1, mean (CV%)
[8] = 100 mg, 100 mg once daily, day 14, mean (CV%)
[9] = 200 mg, 200 mg once daily, day 1, mean (CV%)

O=c1nc(OC[C@@H]2COCCO2)cc2n1CCc1cc(C#CC3CC3)ccc1-2 [GLPG1205, 9‐cyclopropylethynyl‐2‐((S)‐1‐[1,4]dioxan‐2‐ylmethoxy)‐6,7‐dihydropyrimido[6,1‐a]isoquinolin‐4‐one]
dose-proportionality of exposure [1]: increased dose‐proportionally
Ae(Τ), amount excreted in urine over 24 hours ([2]; 50 mg once daily, day 1, mean (CV%)): 0.0785 (22.9) % dose
Ae(Τ), amount excreted in urine over 24 hours ([2]; 50 mg once daily, day 14, mean (CV%), N = 5): 0.428 (22.0)^N = 5 % dose
Ae(Τ), amount excreted in urine over 24 hours ([2]; 100 mg once daily, day 1, mean (CV%), N = 4): 0.0746 (30.1)^N = 4 % dose
Ae(Τ), amount excreted in urine over 24 hours ([2]; 100 mg once daily, day 14, mean (CV%)): 0.480 (27.2) % dose
Ae(Τ), amount excreted in urine over 24 hours ([2]; 200 mg once daily, day 1, mean (CV%)): 0.123 (27.0) % dose
dose-proportionality of steady-state exposure (Cmax and AUCΤ) ([2]; 50 to 100 mg once daily): increased in proportion with the dose; also recorded: increased proportionally with the dose
excretion of unchanged GLPG1205 in urine over 24 hours ([2]; at steady state on day 14): < 0.48 % of the administered dose
AUC [2, 5]: 7580 ng·h/mL
Cmax [2, 5]: 469 ng/mL
Tmax ([2]; 50 mg, 50 mg once daily, day 1): 3 h
AUC [2, 6]: 41300 ng·h/mL
Cmax [2, 6]: 2050 ng/mL
half-life ([2]; 50 mg, 50 mg once daily, day 14, mean (CV%), read-out: t1/2,λz (converted)): 76.7 h
Tmax ([2]; 50 mg, 50 mg once daily, day 14): 4 h
AUC [2, 7]: 14400 ng·h/mL
Cmax [2, 7]: 875 ng/mL
Tmax ([2]; 100 mg, 100 mg once daily, day 1): 4 h
AUC [2, 8]: 82700 ng·h/mL
Cmax [2, 8]: 3910 ng/mL
half-life ([2]; 100 mg, 100 mg once daily, day 14, mean (CV%), read-out: t1/2,λz (converted)): 88.6 h
Tmax ([2]; 100 mg, 100 mg once daily, day 14): 4 h
AUC [2, 9]: 42900 ng·h/mL
Cmax [2, 9]: 2450 ng/mL
Tmax ([2]; 200 mg, 200 mg once daily, day 1): 3 h
Cmax ([2]; 200/150 mg once daily (150 mg as of day 8), day 14, n = 3, mean (CV%)): 8900 ng/mL
AUC ([2]; 200/150 mg once daily, day 14, n = 3, mean (CV%)): 195000 ng·h/mL
half-life ([2]; 200/150 mg once daily, day 14, n = 3, mean (CV%), read-out: t1/2,λz (converted)): 141 h
Tmax ([2]; 200/150 mg once daily, day 14, n = 3): 12 h
half-life ([2]; once-daily dosing for 14 days, read-out: t1/2,λz range): 76.7 to 141 h
time to steady state in plasma concentrations ([2]; once-daily dosing for 14 days, irrespective of dose (by day 10)): 9 dosing days
oral absolute exposure [3]: ≥ 68%
food effect on GLPG1205 exposure [4]: no food effect
